Laboratory results taken from US20190142722A1, “METHODS AND COMPOSITIONS FOR PROMOTING OR INDUCING HAIR GROWTH” (THE TRUSTEES OF COLUMBIA UNIVERSITY IN THE CITY OF NEW YORK, priority 2017, published 2019).

Tests used:
[1] = system: Hair follicle stem cells (HFSCs); assay: Western blot of cultured HFSCs stimulated with OSM, with or without JAK inhibitor pre-treatment; assay type: cell-based, mouse
Description: (§1) HFSCs (ITGA6+ Sca-1−) cells were collected from flow cytometry and plated onto 6-well plates, and maintained with Cnt-07S keratinocyte media. In vitro stimulation experiments were carried out when keratinocytes were 80-90% confluent. Confluent HFSCs were pre-treated with JAK inhibitors (tofacitinib, ruxolitinib or PF-06651600, all at 10 μM) for 20 min, and murine OSM was added for a final concentration of 10 ng/ml or 20 ng/ml for 15 min. For clonogenic assays, HFSCs were plated at a density of 10,000 cells per well and maintained for 2 weeks. For analysis of clonogenicity, plates were washed with PBS, and keratinocytes were fixed in situ with 4% paraformaldehyde (PFA) for 1 hour, followed by staining with 1% (wt/vol) Rhodamine B (Sigma-Aldrich) for 1 h. Clones were quantified using a backlight.
Cells were lyzed in RIPA buffer in the presence of protease and phosphatase inhibitors on ice, and protein lysates were resuspended in Laemmli sample buffer. Whole-cell lysates were fractionated on TGX Stain-free protein gels and transferred to a PVDF membrane, blocked with 5% non-fat milk in TBST, and incubated with antibodies listed in the Key Resources Table (all 1:1000, diluted in TBST/3% BSA) overnight. Membranes were washed the following day and incubated with HRP-conjugated secondary antibodies (1:5000), washed, and developed with Luminata Forte Western HRP Substrate and visualized on the BioRAD ChemiDOC MP Imaging system. GAPDH or (3-actin were used as loading controls, depending on the mass of the proteins of interest.
Hair follicle stem cells (HFSCs) (ITGA6+ Sca-1− population isolated from telogen skin), were cultured and stimulated with OSM at 10 ng/ml and 20 ng/ml. […] (FIG. 1C).

telogen skin [2] = assay: Anagen induction by topical JAK inhibitor in mouse telogen skin; assay type: in vivo; details: topical to dorsal skin for 5 days at P60 (mid-telogen), C57BL/6 mice
From the text: (§2) Mice were carefully shaved with clippers during telogen to reveal the pink skin typical of the telogen phase 1 week prior to the experiment. Mice that were inadvertently wounded were not used. Anagen was induced by topical application of 2% Ruxolitinib in DMSO to the right side of the dorsal skin daily for 5 consecutive days. The hair cycle was observed and documented with standardized photographs taken prior to the first treatment, and then twice weekly thereafter. Murine IL-6, LIF or OSM (100 ng/ml, 50 ng/ml, 125 ng/ml respectively) were dissolved in sterile PBS and 100 μl was injected into the center of the field of application daily for 10 consecutive days, beginning with the first application of Ruxolitinib.
(§3) OSM and other gp130 cytokines (IL-6 and Leukemia Inhibitory Factor, LIF) were tested for their ability to inhibit anagen resulting from topical JAK inhibitors, which resembles spontaneous anagen. C57BL/6 mice were treated on the right dorsal skin topically with Ruxolitinib 2% in DMSO at P60 (mid-telogen) for 5 days, recapitulating previous experiments in Harel, S., et al., Pharmacologic inhibition of JAK-STAT signaling promotes hair growth. Sci Adv, 2015. 1(9): p. e1500973. […] From P60, mice were also injected with control PBS or a gp130 cytokine (IL-6, LIF or OSM) into the middle of the field of topical application for 10 days. […] (FIG. 1A).

macrophages = assay: Macrophage inhibition during telogen to initiate anagen; assay type: in vivo, mouse; details: mid-telogen, C57BL/6 mice
Description: (§4) Neutralizing antibodies to OSMR (7.5 μg) were injected intradermally into the dorsal telogen skin daily for 14 days from P60 (mid-telogen). Neutralizing antibodies to CSFL1R (AFS98) and F4/80 (CI:A3-1) were diluted in sterile PBS, and 500 μg was injected intradermally into the dorsal telogen skin for 14 consecutive days. Neutralizing antibodies to CD25 (PC61.5) were injected intraperitoneally every other day (250 μg/dose×3) from P53, prior to anagen induction at P60.
(§5) For in vivo macrophage inhibition, the small molecule Pexidartinib/PLX3397 was administered topically (2 mM in DMSO) or subcutaneously (1 mM in corn oil) for 5 consecutive days from P60. For OSM knock-down, peritoneal macrophages were harvested from adult C57BL/6 mice and cultured in DMEM/F12/15% FBS/0.3 mMCa2+ the presence of […] M-CSF to polarize them to an “M2-like” phenotype, similar to trichophages. Lentiviral precipitate containing scrambled or OSM shRNA added to the media in the presence of 8 μg/ml protamine sulphate, and the cells were centrifuged at 3000 rpm for 1 h at 32° C. to enhance transduction. Successful transductions were enriched with puromycin (1 μg/ml) selection, counted and used for the patch assay.
Three independent methods of macrophage inhibition during telogen were used to initiate anagen in C57BL/6 mice.

[3] = system: T regulatory cells / macrophages; assay: Anagen initiation after T regulatory cell depletion or macrophage targeting; assay type: in vivo, mouse
Description: as §4

(ITGA6+ Sca-1−) HFSCs = assay: Colony-forming assay with isolated HFSCs; assay type: cell-based, mouse; details: for colony formation of HFSCs: OSM 10 ng/ml or Tofacitinib 100 nM alone
Description: as §1
Colony-forming assays with isolated (ITGA6+ Sca-1−) HFSCs were performed in the presence of OSM (10 ng/ml), Tofacitinib (100 nM) or both. […] (FIG. 1E).

alopecia areata = details: patients, literature (Mackay-Wiggan 2016; Kennedy Crispin 2016); cited from earlier work
[4] = system: Neonatal keratinocytes and dermal cells; assay: Hair reconstitution (patch) assay; assay type: in vivo; details: tofacitinib 400 nM or OSM 25 ng/ml added to cell slurry injected intradermally into nude mouse
Description: as §5
Neonatal (P0 or P1) mice were sacrificed and skins were harvested for the patch assay. Neonatal skins were enzymatically separated with 0.25% trypsin, and the dermis was further digested with 0.3% collagenase/DNase. Neonatal keratinocytes and dermal cells were counted recombined in a 1:1 ratio ([…] each) and resuspended in 100 μl of media (1:1 mix of DMEM/10% FBS and CnT-0.7S) and injected intradermally into the dorsal skin of a nude mouse. For pharmacological/cytokine treatment, tofacitinib (400 nM) and/or OSM (25 ng/ml) was added. […]

telogen skin [5] = assay: Inhibition of topical JAK inhibitor-induced anagen by intradermal gp130 cytokines; assay type: in vivo, mouse; details: cytokine injected intradermally into middle of field of topical application for 10 days from P60, C57BL/6 mice
From the text: as §2, §3

hair follicles = details: cited from earlier work
[6] = pre-treatment 10 μM for 20 min before OSM
[7] = OSM at 10 ng/ml and 20 ng/ml, cultured HFSCs

C=CC(=O)N1C[C@H](Nc2ncnc3[nH]ccc23)CC[C@@H]1C [PF-06651600]
effect on JAK phosphorylation in OSM-stimulated HFSCs (Western blot) [1, 6]: did not have an effect on JAK1/JAK2/Tyk2 or STAT3 phosphorylation
effect on pSTAT3 / pSTAT5 activation in OSM-stimulated HFSCs (Western blot) [1, 6]: without significant inhibition of STAT3 phosphorylation
effect on pSTAT3 / pSTAT5 activation in OSM-stimulated HFSCs (Western blot) ([1]; pre-treatment 10 μM for 20 min before OSM, listed as PF-06651660): still inhibited pSTAT5 activation
anagen induction in telogen skin (telogen skin [2]): sufficient to initiate anagen

FC(F)(F)c1ccc(CNc2ccc(Cc3c[nH]c4ncc(Cl)cc34)cn2)cn1 [Pexidartinib, 5-[(5-chloro-1H-pyrrolo[2,3-b]pyridin-3-yl)methyl]-N-[[6-(trifluoromethyl)pyridin-3-yl]methyl]pyridin-2-amine]
anagen initiation (macrophages; subcutaneous (1 mM in corn oil) for 5 days): successful at initiating anagen
anagen initiation (macrophages; topical (2 mM in DMSO) for 5 days): successful at initiating anagen
anagen initiation compared with wild-type mice treated with a JAK-inhibitor [3]: initiated anagen in the same manner as wild-type mice treated with a JAK-inhibitor

C[C@@H]1CCN(C(=O)CC#N)C[C@@H]1N(C)c1ncnc2[nH]ccc12 [Tofacitinib]
effect on JAK phosphorylation in OSM-stimulated HFSCs (Western blot) [1, 6]: inhibited phosphorylation of a variety of JAKs
effect on pSTAT3 / pSTAT5 activation in OSM-stimulated HFSCs (Western blot) [1, 6]: inhibited both pSTAT3 and pSTAT5 activation
inhibition of OSM-activated pathways by pre-treatment (Western blot) ([1]; pre-treatment 10 μM for 20 min before OSM, cultured HFSCs): inhibited the JAK-STAT and, to a lesser extent, the MAPK-MEK-ERK pathways
colony formation of HFSCs ((ITGA6+ Sca-1−) HFSCs): increased the colony-forming ability of HFSCs, as well as increasing the colony size
rescue of the inhibitory effects of OSM on colony formation ((ITGA6+ Sca-1−) HFSCs; Tofacitinib 100 nM together with OSM 10 ng/ml): sufficient to rescue the inhibitory effects of OSM
efficacy in alopecia areata (alopecia areata): efficacious in the treatment of alopecia areata
hair reconstitution in patch assay [4]: enhanced the hair follicles generated in this assay

B1: IL-6: gp130 cytokine, murine IL-6 (protein, UniProt P08505 25-211, looked up)
Interleukin-6: FPTSQVRRGDFTEDTTPNRPVYTTSQVGGLITHVLWEIVEMRKELCNGNSDCMNNDDALAENNLKLPEIQRNDGCYQTGYNQEICLLKISSGLLEYHSYLEYMKNNLKDNKKDKARVLQRDTETLIHIFNQEVKDLHKIVLPTPISNALLTDKLESQKEWLRTKTIQFILKSLEEFLKVTLRSTRQT
inhibition of anagen resulting from topical Ruxolitinib (telogen skin [5]): OSM was the only member of this class of cytokines that inhibited anagen
induction of catagen (hair follicles; anagen HFs, literature (Kwack 2012)): IL-6 induced catagen in anagen HFs

B2: OSM: secreted cytokine of the LIF/OSM family; murine OSM used in tests (protein, UniProt P53347 25-206, looked up)
Oncostatin-M: NRGCSNSSSQLLSQLQNQANLTGNTESLLEPYIRLQNLNTPDLRAACTQHSVAFPSEDTLRQLSKPHFLSTVYTTLDRVLYQLDALRQKFLKTPAFPKLDSARHNILGIRNNVFCMARLLNHSLEIPEPTQTDSGASRSTTTPDVFNTKIGSCGFLWGYHRFMGSVGRVFREWDDGSTRSRR
inhibition of anagen resulting from topical Ruxolitinib (telogen skin [5]): inhibited anagen in the area it was administered
activation of JAK-STAT and MAPK-MEK-ERK pathways (Western blot) [1, 7]: activated JAK-STAT1/3/5 pathways and the MAPK-MEK-ERK pathways in HFSCs in a dose-dependent fashion
effect on PI3K/Akt/mTOR pathway (Western blot) [1, 7]: minimal effect on the PI3K/Akt/mTOR pathway
activation of JAKs, pSTAT3 and pSTAT5 (Western blot) ([1]; OSM-stimulated cultured HFSCs): dose-dependent activation of all four JAKs (JAK1, JAK2, JAK3, Tyk2), as well as pSTAT3 and pSTAT5
colony formation of HFSCs ((ITGA6+ Sca-1−) HFSCs): prevented colonies from forming in vitro
effect on anagen (hair follicles; mouse, literature): potent inhibitor of anagen
hair reconstitution in patch assay [4]: sufficient to nearly completely inhibit hair reconstitution
